Assay results published in patent US20230167088A1, “1-PYRAZINYLPYRAZOLYL-3-OXYALKYL ACIDS AND THEIR DERIVATIVES, AND THEIR USE FOR CONTROL OF UNDESIRED PLANT GROWTH” (BAYER AKTIENGESELLSCHAFT, priority 2020, published 2023).

Columns and labels:
AVEFA [1] = test: Herbicidal post-emergence action 1a (greenhouse pots, visual rating); type: in vivo, Avena fatua; conditions: rated visually about 3 weeks after treatment, 100% = plants have died, 0% = like control plants
How it was run: (§1)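 Visual scoring versus untreated plants (100% = plants dead, 0% = as control) followed roughly 3 weeks in the greenhouse after treatment. Plants grown in sandy loam pots had been sprayed on green parts at the one-leaf stage, 2–3 weeks post-sowing, with aqueous WP/EC preparations containing 0.5% additive, 600 l/ha, at 320 and/or 80 g/ha.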

LOLRI = test: as above; type: in vivo, Lolium rigidum; conditions: rated visually about 3 weeks after treatment, 100% = plants have died, 0% = like control plants
How it was run: as §1

SETVI = test: as above; type: in vivo, Setaria viridis; conditions: rated visually about 3 weeks after treatment, 100% = plants have died, 0% = like control plants
How it was run: as §1

ABUTH = test: as above; type: in vivo, Abutilon theophrasti; conditions: visual rating about 3 weeks after treatment
How it was run: as §1

AMARE = test: as above; type: in vivo, Amaranthus retroflexus; conditions: visual rating about 3 weeks after treatment
How it was run: as §1

VIOTR = test: as above; type: in vivo, Viola tricolor; conditions: visual rating about 3 weeks after treatment
How it was run: as §1

VERPE [2] = test: as above; type: in vivo, Veronica persica; conditions: visual rating about 3 weeks after treatment
How it was run: as §1

POAAN = test: Herbicidal post-emergence action 1b (twin sowing, 1280 g/ha); type: in vivo, Poa annua; conditions: dosage 1280 g/ha, visual rating about 3 weeks after treatment
How it was run: (§2)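 Compounds, formulated as wettable powders or emulsion concentrates, were applied to foliage of greenhouse-grown weeds at the one-leaf stage with 0.5% additive in 600 L/ha water. Pots held one monocot and one dicot species in sandy loam. Efficacy was scored visually after about 3 weeks versus controls.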

AVEFA [3] = test: Herbicidal pre-emergence action 2a (greenhouse pots, visual scoring); type: in vivo, Avena fatua; conditions: dosage 320 g/ha, visual scoring after about 3 weeks
How it was run: (§3)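 Pots of covered seed were sprayed pre-emergence at 320 and/or 80 g/ha. Roughly three weeks of greenhouse growth preceded visual scoring in percent versus untreated controls.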

VERPE [4] = test: as above; type: in vivo, Veronica persica; conditions: dosage 320 g/ha, visual scoring after about 3 weeks vs untreated controls
How it was run: as §3

MATIN [5] = test: Herbicidal pre-emergence action 2b (doubly sown, 1280 g/ha); type: in vivo, Matricaria inodora; conditions: doubly sown pots, dosage 1280 g/ha, visual scoring after about 3 weeks
How it was run: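 Sandy loam pots, one mono- or dicot species each, double sowing; seeds covered. Aqueous WP/EC spray + 0.5% additive, 600 L/ha, onto cover soil. GH, ~3 wk, visual % vs control.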

MATIN [6] = test: Herbicidal pre-emergence action 2a (greenhouse pots, visual scoring); type: in vivo, Matricaria inodora; conditions: dosage 320 g/ha, visual scoring after about 3 weeks vs untreated controls
How it was run: as §3

ECHCG = test: Herbicidal post-emergence action 1b (twin sowing, 1280 g/ha); type: in vivo, Echinochloa crus-galli; conditions: dosage 1280 g/ha, visual rating about 3 weeks after treatment
How it was run: as §2

MATIN [7] = test: as above; type: in vivo, Matricaria inodora; conditions: dosage 1280 g/ha, visual rating about 3 weeks after treatment
How it was run: as §2

| Compound | Post-emergence action against AVEFA in % (AVEFA [1]; Dosage 80 g/ha) [%] | Post-emergence action against AVEFA in % (AVEFA [1]; Dosage 320 g/ha) [%] | Post-emergence action against LOLRI in % (LOLRI; Dosage 320 g/ha) [%] | Post-emergence action against SETVI in % (SETVI; Dosage 320 g/ha) [%] | Post-emergence action against ABUTH in % (ABUTH; dosage 320 g/ha) [%] | Post-emergence action against AMARE in % (AMARE; dosage 320 g/ha) [%] | Post-emergence action against VIOTR in % (VIOTR; dosage 80 g/ha) [%] | Post-emergence action against VIOTR in % (VIOTR; dosage 320 g/ha) [%] | Post-emergence action against VERPE in % (VERPE [2]; dosage 80 g/ha) [%] | Post-emergence action against VERPE in % (VERPE [2]; dosage 320 g/ha) [%] | Post-emergence action at 1280 g/ha against POAAN in % (POAAN) [%] | Pre-emergence action against AVEFA in % (AVEFA [3]) [%] | Pre-emergence action against VERPE in % (VERPE [4]) [%] | Pre-emergence action at 1280 g/ha against MATIN in % (MATIN [5]) [%] | Post-emergence action against SETVI in % (SETVI; Dosage 80 g/ha) [%] | Post-emergence action against ABUTH in % (ABUTH; dosage 80 g/ha) [%] | Pre-emergence action against MATIN in % (MATIN [6]) [%] | Post-emergence action against AMARE in % (AMARE; dosage 80 g/ha) [%] | Post-emergence action at 1280 g/ha against MATIN in % (MATIN [7]) [%] | other results |
| --- | --- | --- | --- | --- | --- | --- | --- | --- | --- | --- | --- | --- | --- | --- | --- | --- | --- | --- | --- | --- |
| COC(=O)C(C)Oc1nn(-c2cnccn2)c(-c2ccnc(F)c2)c1Cl (racemic) [Example I-05] | 90 | 100 | 90 | 80 | 80 | 80 | 90 | 90 | 80 | 90 | 100 | 80 | 100 | 90 | – | – | – | – | – | – |
| COC(=O)C(C)Oc1nn(-c2cnccn2)c(-c2cncc(F)c2)c1Br (racemic) [Example I-08] | 100 | 100 | 90 | 80 | 90 | 80 | 90 | 90 | 90 | 90 | – | 90 | 100 | – | 80 | 80 | 90 | – | – | – |
| COC(=O)C(C)Oc1nn(-c2cnccn2)c(-c2ccnc(F)c2)c1Br (racemic) [Example I-10] | 80 | 90 | 90 | 80 | – | 80 | 90 | 100 | 80 | 90 | 100 | 90 | – | 90 | – | – | – | – | – | – |
| COC(=O)C(C)Oc1nn(-c2cnccn2)c(-c2ccc(F)nc2)c1Br (racemic) [Example I-12] | 100 | 100 | 90 | 80 | 80 | 80 | 90 | 100 | 80 | 90 | 100 | 90 | 80 | 90 | – | – | – | 80 | 90 | Post-emergence action at 1280 g/ha against ECHCG in % (ECHCG): 90% |
| COC(=O)C(C)Oc1nn(-c2cnccn2)c(-c2ccc(F)c(F)c2)c1C#N (racemic) [Example I-22] | 100 | 100 | 100 | 80 | – | 90 | 80 | 90 | 80 | 90 | 100 | 90 | – | 90 | 80 | – | – | 90 | 90 | Post-emergence action against LOLRI in % (LOLRI; Dosage 80 g/ha): 80% |
| CCOC(=O)COc1nn(-c2cnccn2)c(-c2ccccc2)c1Br [Example I-01] | – | – | 90 | – | 80 | 90 | 90 | 90 | 80 | 90 | – | – | 90 | 100 | – | – | 90 | 80 | 90 | – |
| COC(=O)COc1nn(-c2cnccn2)c(-c2cncc(F)c2)c1Br [Example I-07] | 100 | 100 | 90 | 80 | 90 | 80 | 80 | 90 | 90 | 90 | – | 90 | 100 | – | 80 | 80 | 90 | – | – | Post-emergence action against LOLRI in % (LOLRI; Dosage 80 g/ha): 80% |
| COC(=O)COc1nn(-c2cnccn2)c(-c2ccc(F)c(F)c2)c1Br [Example I-15] | 90 | 90 | 90 | 90 | 80 | 80 | 90 | 90 | 90 | 90 | – | 80 | 100 | – | 90 | 80 | 100 | 80 | – | Post-emergence action against LOLRI in % (LOLRI; Dosage 80 g/ha): 90% |
| COC(=O)[C@@H](C)Oc1nn(-c2cnccn2)c(-c2ccnc(F)c2)c1Br [Example I-34] | – | 90 | 80 | 90 | – | 80 | 90 | 90 | – | 80 | 100 | 90 | – | 100 | 80 | – | – | – | 90 | Post-emergence action at 1280 g/ha against ECHCG in % (ECHCG): 100% |
| COC(=O)[C@@H](C)Oc1nn(-c2cnccn2)c(-c2cncc(F)c2)c1C#N [Example I-40] | – | 80 | 80 | 90 | 80 | 90 | – | 80 | – | 80 | 100 | – | – | 100 | – | 80 | – | 80 | 100 | – |
| CCOC(=O)COc1nn(-c2cnccn2)c(-c2ccc(F)nc2)c1Br [Example I-52, ethyl {[4-bromo-5-(6-fluoropyridin-3-yl)-1-(pyrazin-2-yl)-1H-pyrazol-3-yl]oxy}acetate] | – | – | – | – | 80 | 80 | – | 80 | – | 90 | – | – | 90 | 90 | – | – | 90 | 90 | 90 | – |
